Reference: article PMC13198932, “Pyrazolone-based ERO1 inhibitors in ERO1-driven triple-negative breast cancer and SEPN1-related myopathy: Structure–activity relationship and therapeutic potential” (Pharmacological research, 2025)

Key:
[1] = target: T1, ERO1 in WT and SEPN1 KO myotubes (Mus musculus, UniProt Q8R180); assay: ERO1 redox state by non-reducing immunoblot in WT and SEPN1 KO myotubes; format: cell-based, mice; settings: 3 h treatment
T1 construct: endogenous in cells; host or cells: primary myotubes from WT and SEPN1 KO C57BL/6 mice
T1 sequence (Q8R180 24-464): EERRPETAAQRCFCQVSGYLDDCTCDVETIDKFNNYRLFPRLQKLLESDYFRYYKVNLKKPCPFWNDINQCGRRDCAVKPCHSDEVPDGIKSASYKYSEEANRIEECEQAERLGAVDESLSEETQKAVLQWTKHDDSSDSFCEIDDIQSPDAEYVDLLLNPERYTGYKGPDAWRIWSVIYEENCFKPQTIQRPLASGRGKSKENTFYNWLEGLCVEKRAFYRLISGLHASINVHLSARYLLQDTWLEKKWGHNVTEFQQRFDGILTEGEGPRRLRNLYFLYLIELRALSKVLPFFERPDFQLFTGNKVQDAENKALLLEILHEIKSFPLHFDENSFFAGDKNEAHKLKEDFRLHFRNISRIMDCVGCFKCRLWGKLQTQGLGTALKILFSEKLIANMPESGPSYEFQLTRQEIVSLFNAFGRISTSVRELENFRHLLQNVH
Description: Muscle stem cells were isolated from muscles of 1-month-old wild-type (WT) and SEPN1 knockout (KO) mice using a tissue dissociation protocol with the gentleMACS™ Octo Dissociator with Heaters (Miltenyi Biotec, Bergisch Gladbach, Germany), followed by magnetic depletion. To generate myotubes, cells were cultured on Matrigel-coated Ibidi μ-Slide 8 well chambers (Cat. No. 80826, Ibidi GmbH, Gräfelfing, Germany) in DMEM (EuroClone, Pero, Milan, Italy) supplemented with 20 % fetal bovine serum (EuroClone), 3 % chick embryo extract (Cat. 11485015, Fisher Scientific SAS), 10 ng/mL basic fibroblast growth factor (Cat. 13256029, Life Technologies Europe BV), 1 % GlutaMAX (Gibco; Thermo Fisher Scientific, Waltham, MA, USA), and 1 % penicillin-streptomycin (EuroClone).
After 48 h of proliferation, cells were cultured for an additional 2 days in medium containing 2 % horse serum (EuroClone) to induce differentiation, then harvested for analysis. For ERO1 redox state, cells were treated for 3 h with either EN460 or I29, harvested and followed by a non-reducing ERO1 Immunoblot.

[2] = tested on: WT and SEPN1 KD C2C12 muscle cells; assay: Real-time quantitative RT-PCR of ER stress markers BIP, CHOP, ERO1; format: cell-based; settings: 2 μM
Text: RNA from WT and SEPN1KD C2C12 was reverse-transcribed and analyzed using the Applied Biosystems’ real-time PCR System and the ΔΔCt method. Relative gene expression in cells was normalized to Actin mRNA levels as in [27].

[3] = target: T2, ERO1 in E0771 cells (Mus musculus, UniProt Q8R180); assay: ERO1 redox state by non-reducing immunoblot in E0771 cells; format: cell-based, murine; settings: E0771, Fig. 4F
T2 construct: endogenous in cells; host or cells: E0771
T2 sequence (Q8R180 24-464): T1 sequence (Q8R180 24-464)
Description: MDAMB231 and E0771 cells were maintained in Dulbecco’s Modified Eagle’s Medium supplemented with 1 % fetal bovine serum and seeded at 70 % confluency in six-well plates one day prior to the experiment. Cells were treated with DTT (10 mM) and/or ERO1A inhibitors for 1–5 h. At the time of collection, phosphate-buffered saline containing 10 mM NEM was added, and cells were incubated on ice for 10 min in lysis buffer (50 mM Tris-HCl, pH 7.4; 150 mM NaCl; 1 % Triton X-100; 0.1 % SDS; 1 % sodium deoxycholate; protease inhibitors; and 10 mM NEM). Protein concentrations were determined using the BCA assay, and equal amounts of protein were separated by non-reducing SDS-PAGE followed by immunoblotting with a polyclonal antibody against ERO1A [33].

[4] = tested on: WT and SEPN1 KO myotubes; assay: TMRM staining of mitochondrial membrane potential in WT and SEPN1 KO myotubes; format: cell-based, mice; settings: 1–5 μM, 16 h treatment
Description: Muscle stem cells were isolated from muscles of 1-month-old wild-type (WT) and SEPN1 knockout (KO) mice using a tissue dissociation protocol with the gentleMACS™ Octo Dissociator with Heaters (Miltenyi Biotec, Bergisch Gladbach, Germany), followed by magnetic depletion. […]
After 16 h of treatment with EN460 or I29 in differentiation medium, the culture medium was removed and replaced with the TMRM staining solution for the assessment of mitochondrial membrane potential. […] TMRM fluorescence was acquired at λexc 561 nm / λem 595 nm by a Nikon A1 confocal system equipped with an Okolab stage incubator (CO2 5 %, 37°C, 90 % humidity) immediately after TMRM and over a 10-minute baseline period with 65 s time interval. […] Data were analyzed using ImageJ. Briefly, background noise was set to NaN and the remaining signal quantified as mean pixel gray values. Data were expressed as ΔF/F0 (F0= mean of baseline signal).

[5] = tested on: WT and SEPN1 KO mice; assay: Whole-body plethysmography in WT and SEPN1 KO mice; format: in vivo; settings: 10 mg/kg i.p. once daily for five days
Description: Wild-type (WT) and SEPN1 knockout (KO) C57BL/6 male mice, aged 4 months, were fed either a selenium-deficient diet or a diet containing 0,4 ppm selenium for four months (cod. 10105101, Charles River). Experimental protocols followed D.lgs. 26/2014 (authorization 19/2008-A; authorization 465/2023-PR to E. Zito). All animal experiments were performed in accordance with the ARRIVE guidelines and complied with relevant national and international laws, regulations, and policies governing the care and use of laboratory animals, including Italian law.
Wild-type (WT) and SEPN1 knockout (KO) male mice, previously fed a selenium-deficient diet or a diet containing 0.4 ppm selenium, were randomized to receive intraperitoneal (i.p.) injections of I29 or vehicle alone. Treatments were administered once daily for five consecutive days at a dose of 10 mg/kg. Twenty-four hours after the final injection, mice underwent whole-body plethysmography (Whole Body Plethysmography by emkaTechnologies) under baseline conditions in ambient air to assess several respiratory parameters reflecting ventilatory efficiency. In particular, tidal volume (TV), breathing frequency (f), peak inspiratory flow (PIF), and mean inspiratory flow (TV/inspiratory time [TI]) were measured. Both intra- and inter-subject coefficients of variation (CV) for TV and f were also computed.

[6] = selenium-supplemented (0.4 ppm) SEPN1 KO mice

Compound: O=C1/C(=C/c2ccc(-c3ccccc3)o2)C(C(F)(F)F)=NN1c1ccccc1F [I29]
- reduced state of ERO1 compared with EN460 [1]: more effective than EN460
- CHOP expression [2]: downregulate CHOP expression
- ERO1 redox assay compared with EN460 [3]: superior efficacy of I29 over EN460
- TMRM fluorescence (mitochondrial membrane potential) [4]: significant increase in TMRM fluorescence
- respiratory function ([5]; SEPN1 KO mice): failed to improve respiratory function
- respiratory parameters ([5]; WT mice, independent of selenium content in the diet): mild improvement in respiratory parameters
- variability in tidal volume (CV TV) ([5]; selenium-deficient SEPN1 KO mice): increased CV TV
- variability in respiratory frequency (CV f) [5, 6]: concomitant reduction in CV f
- variability in tidal volume (CV TV) [5, 6]: consistently reduced CV TV
